Assay [1] has as its system MA-16C mammary adenocarcinoma tumors. Nature of the assay: MA-16C mammary adenocarcinoma tumor implants. Type of assay: in vivo, female C3H mice. The note with it: DOX study. The method, then:
Fragments of MA-16C mammary adenocarcinoma tumors were implanted subcutaneously into female C3H mice (8-11 animals per group). The animals were treated with vehicle alone, IGFBP-3 (4 mg/kg/day for 21 days by subcutaneous injection), doxorubicin (2 mg/kg on days 1 and 8 by intravenous injection), or IGFBP-3 plus doxorubicin. A separate study was performed where the animals were treated with vehicle alone, 5-fluorouracil (10 mg/kg on days 1-5 by intraperitoneal injection), or IGFBP-3 plus 5-fluorouracil. Tumor size was measured at day 18, and the mice were sacrificed at day 21, and the implanted tumors were removed for determination of caspase-3 activity (a marker of apoptosis-only performed for DOX groups).

Assay [2] has as its system HEK293 cells. Nature of the assay: Nuclear translocation of MBD-GFP32 after endocytosis inhibitors. Format: cell-based, human. The following applies: inhibitor 10 μg/ml one hour; 500 ng/ml MBD-GFP32, twenty minutes; FIG. 19. How it is done:
HEK293 cells were pre-incubated with inhibitors nystatin (inhibitor of caveolin pathway) or chlorpromazine (inhibitor of clathrin pathway) for one hour at 10 μg/ml. […] Extracts were assayed by anti-GFP ELISA.

For assay [3], the system named is HEK 293 cells. The experiment in a line: Co-apoptotic activity of MBD peptides and paclitaxel, caspase-3. Format: cell-based, human. The note with it: normalized to MBD2 = 100 on a molar basis; peptide 50 ng/ml, 0.3 ng/ml paclitaxel, 8 hours. The method, then:
Peptides (50 ng/ml) were added to 80% confluent HEK 293 cells grown in DMEM supplemented with 0.3 ng/ml paclitaxel concurrent with peptide. Caspase-3 activity was measured in cell extracts 8 hours post-addition.
(§1) Apoptotic activity is expressed in arbitrary caspase-3 units normalized to MBD2 on a molar basis (MBD2 activity was defined as 100 units (avg. of 3 experiments); “nd” indicates “not done”; “ps” indicates phosphoserine. Metal-binding is expressed as a percentage of loaded peptide bound to a Ni-NTA resin; approximately 1-1.5 mg of peptide were loaded on the column. Cell uptake was determined using genetic fusions to GFP as described in Example 9.

Assay [4] in a line: Metal-binding of peptides to Ni-NTA resin. The following applies: percentage of loaded peptide bound to Ni-NTA resin; 1-1.5 mg loaded. The method, then:
as §1

Assay [5] concerns HEK293 cells. The experiment in a line: Caspase-3 apoptosis assay on nutritionally stressed HEK293 cells (Examples 1-2). Format: cell-based, human. The method, then:
Human embryonal kidney 293 (HEK293) cells were grown in Dulbecco's Modified Eagle Medium (D-MEM) supplemented with fetal calf serum at 2%, 4%, 6%, or 8%. When the cells reached 80-85% confluency (cell titer approximately 2.1×10^6 cells per plate), 5 μg of IGFBP-3 or buffer control was added to each plate. The cells were incubated at 37° C. overnight. The next day the medium was removed and the cells were rinsed with trypsin-EDTA (0.25% trypsin, 1 mM EDTA) plus 1× phosphate buffered saline. The cells were centrifuged and the supernatant was removed. ApoAlert caspase-3 assay kit from Clontech Inc (Palo Alto, Calif.) was used to measure apoptosis. The cells were resuspended in 50 μl of chilled cell lysis buffer and incubated on ice for 10 minutes. The resulting cell, lysates were centrifuged at 14000 rpm in a Beckman microcentrifuge for 3 minutes at 4 C. The supernatant was transferred to new tubes and 50 μl of 2× reaction buffer/DTT plus 5 μl of 1 mM caspase-3 substrate was added to each tube. After incubating at 37 C. for 1 hour in a water bath, the samples were read at 405 nm in a microplate reader.
Peptides derived from IGFBP-3 were tested for pro-apoptotic activity essentially as described in Example 1.
The peptides tested are described in Table 1 (peptides marked with an asterisk include a hexahistidine tag).

Assay [6] can be described thus: Binding of short peptides to Ni-His-Bind column, imidazole elution. The method, then: We further tested the ability of IGFBP-3-derived sub-domains and peptides to bind metal. As shown in Example 5, below, a defined fragment of IGFBP-3 generated in vivo can be captured on IMAC. Two short peptides were passed through a Ni-His-Bind column:
Both peptides bound specifically to the column. Peptide 1 eluted with 60 mM imidazole, whereas higher concentrations of imidazole (1M) were necessary to elute Peptide 2.

Assay [7] concerns HEK293 cells. The experiment in a line: Nuclear translocation of biotinylated peptide/streptavidin-HRP conjugate. Format: cell-based, human. The note with it: approx. 90 Kd conjugate, 20 minutes; FIG. 24. How it is done:
Biotinylated MBD peptides MBD9, MBD20 ([…] (SEQ ID NO: 37): the MBD core 14mer is underlined, and the caveolin consensus binding sequence is bolded) or MBD21 ([…] (SEQ ID NO: 38): the MBD core 14mer is underlined, and the caveolin consensus binding sequence is bolded) were each mixed with streptavidin-horseradish peroxidase conjugate (3-6× molar excess of MBD peptide) and added to HEK293 cells. After 20 minutes, nuclear and cytoplasmic extracts were prepared as described in Example 20 and assayed for peroxidase activity.

Assay [8] deals with HEK293 cells. The experiment in a line: Co-apoptotic activity with paclitaxel in presence of plasma proteins. Format: cell-based, human. The note with it: 50 ng/ml, 0.3 ng/ml paclitaxel, eight hours. How it is done: Co-apoptotic activity of MBD peptides or IGFBP-3 with paclitaxel was tested in the presence or absence of two plasma proteins; fibronectin and fibrinogen. MBD peptides or IGFBP-3, (50 ng/ml), 0.3 ng/ml paclitaxel, and plasma proteins (200 ng/ml) were added to 80% confluent HEK293 cells grown in DMEM essentially as described in Example 8. Caspase-3 was measured after an eight hour incubation.
Apoptotic activity was calculated in arbitrary caspase-3 units normalized to MBD2 (MBD2 activity was defined as 100 units) Results are summarized in Table 4 (average of 3 experiments).

Assay [9] deals with HEK 293 cells. Nature of the assay: IGF-independence of apoptosis stimulation, caspase-3. Type of assay: cell-based, human. How it is done: HEK 293 cells were cultured under stressed conditions (low serum or in the presence of paclitaxel) with and without IGFBP-3 (50 ng/ml) or MBD2 (50 ng/ml). Apoptosis was assayed using the caspase-3 assay as described in Example 1.
Assay [10] relates to HEK 293 cells. Nature of the assay: Integrin dependence of pro-apoptotic activity, caspase-3. Format: cell-based, human. The note with it: with paclitaxel; FIG. 12A. How it is done:
HEK 293 cells were cultured as described in Example 10, including paclitaxel. Cells were incubated with MDB2 either alone or in combination with an anti-adhesion protein antibody. Antibodies were against integrin associated protein (LAP), fibronectin (Fn), transferrin receptor (TfnR), alpha 5 integrin, alpha 6 integrin, alpha v integrin, beta 1 integrin, and beta 5 integrin. Caspase-3 activity was assayed as described in Example 1.

Assay [11] concerns HEK 293 cells transfected with dominant negative inserts. Nature of the assay: Co-apoptotic activity in cells with blocked signal transduction. The note with it: AktDN, PTEN, ILKdn, rafDN inserts; with paclitaxel; FIG. 15. Type of assay: cell-based, human. The method, then:
HEK 293 cells were transfected with pUSEamp, or pUSEamp carrying a Akt dominant negative (AktDN), PTEN, ILK dominant negative (ILKdn) or raf dominant negative (rafDN) insert (Upstate Biotechnologies). The cells were cultured as described in Example 10 (including paclitaxel), with or without MBD2.

Assay [12] relates to MA16C cells. The experiment in a line: Sensitization to low dose doxorubicin, caspase-3. Format: cell-based. The note with it: doxorubicin 75 ng/ml, FIG. 16A. The method, then:
MA16C cells were cultured in the presence of MDB2 and a low dose of doxorubicin (75 ng/ml). Apoptosis was assayed using the caspase-3 assay as described in Example 1.

Assay [13] deals with MDA-MB-231 cells. Nature of the assay: Sensitization to low dose paclitaxel, NMP levels. The following applies: paclitaxel 100 ng/ml, 50 ng/ml peptide, FIG. 16B. Format: cell-based. How it is done: MDA-MB-231 cells were cultured in the presence of low dose paclitaxel (100 ng/ml) with and without MDB2 (50 ng/ml). Apoptosis was assayed by measuring NMP levels.

Where no end group is shown, it is not given here.

For `COc1cccc2c1C(=O)c1c(O)c3c(c(O)c1C2=O)C[C@@](O)(C(=O)CO)C[C@@H]3O[C@H]1C[C@H](N)[C@H](O)[C@H](C)O1` [DOX, doxorubicin, reference compound], in [1] (IGFBP-3 4 mg/kg/day sc 21 days, doxorubicin 2 mg/kg iv days 1 and 8), the “Tumor Weight” value was 1966 + 677 mg. Also, in assay [1] (animals with metastases/animals), the “Lung Metastases” value is 0/12. The Caspase-3 in assay [1] (tumors removed at day 21) was determined as 7.88 ± 6.27.
Turning to `CN(C)CCCN1c2ccccc2Sc2ccc(Cl)cc21` [chlorpromazine], the “effect on nuclear translocation of MBD peptides” value in [2] was “inhibit nuclear translocation of MBD peptides”.
As to `C[C@@H]1[C@H](O)[C@@H](C)/C=C/C=C/CC/C=C/C=C/C=C/C=C/C(O[C@H]2O[C@H](C)[C@@H](O)[C@H](N)[C@@H]2O)CC2O[C@](O)(CC(O)C(O)CCC(O)CC(O)CC(O)CC(=O)O[C@H]1C)CC(O)C2C(=O)O` (some centres unmarked) [nystatin], the “effect on nuclear translocation of MBD peptides” value in [2] is given as “inhibit nuclear translocation of MBD peptides”.
Take CRPSKGRKRGFC [MBD4]: the “Apoptotic Activity” value in assay [3] is recorded as 10-15 arbitrary caspase-3 units. The same molecule came in with a Metal-binding in assay [4] of 92 percentage.
Take CRPSKGRKRGFCW [MBD12]: in assay [3], the “Apoptotic Activity” value is listed as 10-40 arbitrary caspase-3 units.
Consider DKKGFYKKKQCRPSKGRKRGFCW [MBD1], for which the “pro-apoptotic activity” value in assay [5] (FIG. 4A/4B) is given as “dramatic lowering of pro-apoptotic activity”. In assay [6], the “imidazole concentration that elutes the peptide” value is 60 mM. Further, the “Apoptotic Activity” value in assay [3] was 10-15 arbitrary caspase-3 units. The molecule also showed a Metal-binding in [4] of 22 percentage.
Regarding GFYKKKQCRPSKGRKRGFCW [MBD5], in assay [3], the “Apoptotic Activity” value is 10-15 arbitrary caspase-3 units. Also, the Metal-binding in [4] turned out to be 95 percentage.
As to KKEKDIMKKTIQCRPSKGRKRGFCWNGR [MBD10], the “Apoptotic Activity” value in [3] amounted to 127 arbitrary caspase-3 units.
For the molecule “KKGFYKKKQCRPSKGRKRGFCWAVDKYG (cysteine pairing not given here; also: biotinylated, position not given here) [MBD21, tested biotinylated with streptavidin-HRP]”, the “nuclear mobilization of streptavidin-HRP conjugate compared with MBD9” value in assay [7] is reported as “far more efficiently”.
With KKGFYKKKQCRPSKGRKRGFCWNGRK [MBD9], in assay [3], the “Apoptotic Activity” value is recorded as 149 arbitrary caspase-3 units. The Metal-binding in assay [4] is reported as 45 percentage.
With QCKMSLNGQRGECW [BP2n1s], the “Apoptotic Activity” value in [3] is recorded as under 5 arbitrary caspase-3 units.
QCKPSRGRKRGICW [BP5n1s]: the “Apoptotic Activity” value in assay [3] was under 5 arbitrary caspase-3 units. In addition, the Metal-binding in assay [4] is 28 percentage.
Taken in the same sequence, the figures for QCRPSEGGKRGFCW [MBD3] were under 5 arbitrary caspase-3 units and 100 percentage.
Turning to QCRPSKGRKRGFC [MBD13], the “Apoptotic Activity” value in assay [3] was 10-40 arbitrary caspase-3 units.
Turning to QCRPSKGRKRGFCW [MBD2], the “pro-apoptotic activity relative to intact IGFBP-3 or a longer peptide” value in [5] (on a weight basis, FIG. 4B) was 3-4 ×. Moreover, in assay [6], the “binding to the column” value is “binds metal more tightly” and the “imidazole concentration necessary to elute the peptide” value is on record as 1 M. Further, in assay [3], the “Apoptotic Activity” value turned out to be 100 arbitrary caspase-3 units. For the same molecule, in [4], the Metal-binding is 66 percentage. For the same molecule, the “co-apoptotic activity with Fibrinogen” value in assay [8] (Fibrinogen 200 ng/ml) is listed as 67.5 arbitrary caspase-3 units. For the same molecule, the “co-apoptotic activity with Fibronectin” value in assay [8] (Fibronectin 200 ng/ml) is listed as 98.3 arbitrary caspase-3 units. Further, the “co-apoptotic activity, plasma protein none” value in assay [8] (no plasma protein) is 100.0 arbitrary caspase-3 units. Besides, the “IGF dependence of pro-apoptotic activity” value in assay [9] (0.3 ng/ml paclitaxel, alone or with Y60L-IGF-I, FIG. 11C) is “independent of the presence of IGF”. Besides, the “pro-apoptotic activity under stressed conditions” value in assay [9] (low serum or paclitaxel, 50 ng/ml, FIGS. 11A, 11B) is “nearly identical”. In addition, in assay [10], the “pro-apoptotic activity with anti-adhesion protein antibodies” value is “inhibited by antibodies against integrins and integrin-associated proteins”. For the same molecule, in assay [11], the “pro-apoptotic activity in cells with blocked pathways” value is given as “inhibited in cells in which the PI3K/ILK kinase signal transduction pathway is blocked, but not in cells where the MAPK signal transduction pathway is blocked”. Moreover, in [12], the “sensitization to doxorubicin” value is recorded as “sensitizes MA16C mammary adenocarcinoma cells to low doses of doxorubicin”. Also, the “sensitization to paclitaxel” value in assay [13] is “sensitizes MDA-MB-231 cells to low doses of paclitaxel”.
Regarding “QCRPSKGRKRGFCWAVDKYG (cysteine pairing not given here; also: biotinylated, position not given here) [MBD20, tested biotinylated with streptavidin-HRP]”, in assay [7], the “nuclear mobilization of streptavidin-HRP conjugate compared with MBD9” value is listed as “far more efficiently”.
For QCRPSKGRKRGFCWNGR [MBD7], in assay [3], the “Apoptotic Activity” value worked out at 89 arbitrary caspase-3 units. The Metal-binding in [4] came to 11 percentage.

(Values after US6914049B2, “IGF-binding protein-derived peptide or small molecule” (Bioexpertise, LLC, priority 2001, dated 2005).)
